Measured values taken from US10301257B2, “Use of acylsulfonamides for improving plant yield” (BAYER INTELLECTUAL PROPERTY GMBH, priority 2011, dated 2019).

What was measured:
Assay type in all cases: in vivo
spring wheat [1] = experiment: Field trial: gluten content of spring wheat grains, postemergence application of Cyprosulfamide; settings: 35 days after application
Text: (§1) The trials have been carried out under natural field conditions (plot trials, 10 square meter plots, 2-4 replications).
(§2) The applications have been done with seed treatment, pre- or post-emergence treatments straight (alone, 1 application) or sequential treatments e.g. seed treatment followed by pre-emergence and/or post-emergence spray applications. The pre- or post-emergence applications were made with spray applications using 100-300 I/water per hectare. The growth stage of the crops species at the time of application are reported in the result tables. The dose rates of the herbicidal active ingredients applied alone respective in sequential application are also described in the result tables.
(§3) The assessments have been done via visual ratings (0-100% scale) or counting. The trials have been harvested after crops reached the full maturity. After the harvest the total weight of kernels/seeds/beets per plot was measured. The results are reported as means over 2-4 replications. The time between applications and assessments or countings/harvest are described in the result tables as well.

winter wheat [2] = experiment: Field trial: grain yield (g/1000 kernel) of winter wheat, seed treatment with Cyprosulfamide; settings: 1 g ai/kg seed
Text: (§4) The trials have been carried out under natural field conditions (plot trials, 10 square meter plots, 2-4 replications). The applications have been done with seed treatment, pre- or post-emergence treatments straight (alone, 1 application) or sequential treatments e.g. seed treatment followed by pre-emergence and/or post-emergence spray applications. The pre- or post-emergence applications were made with spray applications using 100-300 I/water per hectare. The growth stage of the crops species at the time of application are reported in the result tables. The dose rates of the herbicidal active ingredients applied alone respective in sequential application are also described in the result tables. The assessments have been done via visual ratings (0-100% scale) or counting. The trials have been harvested after crops reached the full maturity. After the harvest the total weight of kernels/seeds/beets per plot was measured. The results are reported as means over 2-4 replications. The time between applications and assessments or countings/harvest are described in the result tables as well. The active ingredients have been applied to the untreated, dry seeds together with a carrier. After a short period of time to let the seeds dry, they were ready to be sown in the pot or field using standard equipments.

corn [3] = experiment: Field trial: biomass yield and plant density of corn, sequential application of Cyprosulfamide; settings: 0.15 g ai/kg seed fb 3 × 50 g ai/ha post, 98 days after emergence
Text: as §4

corn [4] = experiment: Field trial: grain yield of corn, sequential application of Cyprosulfamide
Text: as §4

sugarbeet = experiment: Field trial: sugar and beet yield of sugarbeet, sequential application of Cyprosulfamide; settings: 0.15 mg ai/seed fb 3 × 50 g ai/ha post, 44 days after last postemergence treatment
Text: as §4

spring wheat [5] = experiment: Field trial: grain yield of spring wheat, postemergence application of Cyprosulfamide
Text: as §1, §2, §3

corn (maize) = experiment: Field trial: grain yield of corn (maize) after seed treatment with Cyprosulfamide; settings: for Difference(%) vs. UTC / Relative %: corn (maize) grain yield; for Relative %: UTC = 100%; for Yield (grain yield at harvest): corn (maize), seed treatment prior planting, 110 days after planting (short season variety)
Text: as §4

canola [6] = experiment: Field trial: grain yield of canola, postemergence treatment with Cyprosulfamide
Text: as §1, §2, §3

soybeans = experiment: Field trial: grain yield of soybeans, postemergence application of Cyprosulfamide; settings: 100 g ai/ha
Text: as §1, §2, §3

rice plants = experiment: Field trial: germination and emergence of rice plants after seed treatment with Cyprosulfamide
Text: as §4

cotton = experiment: Field trial: lint yield of cotton, postemergence application of Cyprosulfamide; settings: 100 g ai/ha
Text: as §1, §2, §3

rice = experiment: Field trial: grain yield of rice, sequential application of Cyprosulfamide
Text: as §4

winter wheat [7] = experiment: Field trial: grain yield of winter wheat, preemergence application of Cyprosulfamide
Text: as §1, §2, §3

corn [8] = experiment: Field trial: grain yield of corn, postemergence application of Cyprosulfamide
Text: as §1, §2, §3

canola [9] = experiment: Field trial: grain yield of canola, sequential application of Cyprosulfamide
Text: as §4

[10] = system: spring oilseed rape (canola); experiment: Field trial: grain yield of spring oilseed rape (canola), postemergence CPA + tebuconazole (TBC)
Text: as §1, §2, §3

spring wheat [11] = experiment: Field trial: grain yield of spring wheat, postemergence cyprosulfamide (CPA) + epoxiconazole (EPC)
Text: as §1, §2, §3

COc1ccccc1C(=O)NS(=O)(=O)c1ccc(C(=O)NC2CC2)cc1 [Cyprosulfamide, cyprosulfamide]
Yield Relative: relative gluten content in harvested grains (spring wheat [1]; 100 g ai/ha at ear emergence, UTC = 100%): 109% | Yield: gluten content (absolute) in harvested grains (spring wheat [1]; postemergence at ear emergence, 100 g ai/ha): 30.9 | Difference(%) vs. UTC (winter wheat [2]; winter wheat g/1000 kernel): +8% | Relative (winter wheat [2]; winter wheat g/1000 kernel, UTC = 100%): 108% | Yield (grain yield at harvest) (winter wheat [2]; winter wheat, seed treatment prior planting, 290 days after planting): 39.2 g/1000 kernel | Yield: Biomass yield at harvest (corn [3]; UTC 6.0): 7.5 t/ha | Yield: Plant density at harvest (corn [3]; UTC 14): 17.3 plants/sqm | Difference(%) vs. UTC (corn [4]; corn grain yield, sequential application): +38% | Relative (corn [4]; corn grain yield, sequential application, UTC = 100%): 138% | Yield (grain yield at harvest) (corn [4]; corn, 0.15 g ai/kg seed fb 3 × 50 g ai/ha post (2-4 leaves, 6-8 leaves, preflowering), 98 days after emergence): 14.1 t/ha | Yield of beets (storage root/body) by weight at harvest (sugarbeet; UTC 59.3): 61.3 t/ha | Sugar Yield at harvest (sugarbeet; UTC 5778): 6110 kg/ha | Difference(%) vs. UTC (spring wheat [5]; spring wheat grain yield, 100 g ai/ha postemergence): +8% | Yield (grain yield at harvest) (spring wheat [5]; spring wheat, postemergence at beginning of emergence of the ears (GS49), 100 g ai/ha, 48 days after application): 3.83 t/ha | Difference(%) vs. UTC (corn (maize); 0.15 mg ai/seed): +12% | Relative % (corn (maize); 0.15 mg ai/seed): 112% | Difference(%) vs. UTC (corn (maize); 0.225 mg ai/seed): +13% | Relative % (corn (maize); 0.225 mg ai/seed): 113% | Yield (grain yield at harvest) (corn (maize); 0.15 mg ai/seed): 8.32 t/ha | Yield (grain yield at harvest) (corn (maize); 0.225 mg ai/seed): 8.39 t/ha | Difference(%) vs. UTC (canola [6]; canola grain yield, 100 g ai/ha postemergence): +19% | Relative (canola [6]; canola grain yield, 100 g ai/ha postemergence, UTC = 100%): 119% | Yield (grain yield at harvest) (canola [6]; canola, postemergence GS 52 pre flowering, 100 g ai/ha, 63 days after treatment): 2.62 t/ha | Difference(%) vs. UTC (soybeans; soybean grain yield): +5% | Relative (soybeans; soybean grain yield, UTC = 100%): 105% | Yield (grain yield at harvest) (soybeans; soybeans, postemergence preflowering (GS 60), 45 days after application): 2.78 t/ha | Difference(%) vs. UTC (rice plants; rice plants/10 m^2, 0.5 g ai/kg seed): +23% | Relative (rice plants; rice plants/10 m^2, 0.5 g ai/kg seed, UTC = 100%): 123% | plants/10 m^2 (germination and emergence) (rice plants; rice, seed treatment 0.5 g ai/kg seed, 12 days after emergence): 208 plants/10 m^2 | Difference(%) vs. UTC (cotton; cotton lint yield): +16% | Relative (cotton; cotton lint yield, UTC = 100%): 116% | Yield t/ha (lint) (cotton; cotton lints at harvest, postemergence preflowering (GS 55), 90 days after application): 0.254 t/ha | Difference(%) vs. UTC (rice; rice grain yield, sequential application): +5% | Relative (rice; rice grain yield, sequential application, UTC = 100%): 105% | Yield (grain yield at harvest) (rice; rice, 0.5 g ai/kg seed fb 3 × 50 g ai/ha post, 75 days after last application): 5.74 t/ha | Difference(%) vs. UTC (winter wheat [7]; winter wheat grain yield, 100 g ai/ha preemergence): +11% | Relative % (winter wheat [7]; winter wheat grain yield, 100 g ai/ha preemergence, UTC = 100%): 111% | Yield (grain yield at harvest) (winter wheat [7]; winter wheat, preemergence autumn, 100 g ai/ha, 247 days after application): 5.88 t/ha | Difference(%) vs. UTC (corn [8]; corn grain yield, 100 g ai/ha postemergence): +28% | Relative (corn [8]; corn grain yield, 100 g ai/ha postemergence, UTC = 100%): 128% | Yield (grain yield at harvest) (corn [8]; corn, postemergence at 6-8 leaves, 100 g ai/ha, 130 days after application): 5.60 t/ha | Difference(%) vs. UTC (canola [9]; canola grain yield, sequential application): +24% | Relative (canola [9]; canola grain yield, sequential application, UTC = 100%): 124% | Yield (grain yield at harvest) (canola [9]; canola, 0.5 g ai/kg seed fb 3 × 50 g ai/ha post (4-6 leaves, stem elongation, beginning of flowering), 63 days after application): 3.47 t/ha

CC(C)(C)C(O)(CCc1ccc(Cl)cc1)Cn1cncn1 (centres unmarked) [TBC, tebuconazole]
Difference(%) vs. UTC ([10]; canola grain yield, TBC 150, CPA + TBC 100 + 150 g ai/ha): +1.8% | Relative % ([10]; canola grain yield, TBC 150, CPA + TBC 100 + 150 g ai/ha, UTC = 100%): 101.8% | Yield (grain yield at harvest) ([10]; spring oilseed rape (canola), post-emergence spring, beginning of flowering, TBC 150 g ai/ha, CPA + TBC 100 + 150 g ai/ha, 92 days after application, UTC 3.91): 3.91 t/ha

Fc1ccc([C@]2(Cn3cncn3)O[C@H]2c2ccccc2Cl)cc1 (racemic) [EPC, epoxiconazole]
Difference(%) vs. UTC (spring wheat [11]; spring wheat grain yield, EPC 125, CPA + EPC 100 + 125 g ai/ha): +9.7% | Relative % (spring wheat [11]; spring wheat grain yield, EPC 125, CPA + EPC 100 + 125 g ai/ha, UTC = 100%): 109.7%^ | Yield (grain yield at harvest) (spring wheat [11]; spring wheat, post-emergence spring, flag leaf sheath opening, EPC 125 g ai/ha, CPA + EPC 100 + 125 g ai/ha, 55 days after application, UTC 1.84): 2.02 t/ha
